# Measured values: US20050080142A1 (priority 2003, published 2005)
# Experiments:
# Format in all cases: cell-based
# [1] = system: Acanthamoeba (Trophozoite)
# [2] = system: Tetrahymena (Trophozoite)
# Acanthamoeba (Cyst) = system: Acanthamoeba (Cyst)
SMILES,"Minimal Lethal Concentration, Acanthamoeba (Trophozoite) [1]","Minimal Lethal Concentration, Tetrahymena (Trophozoite) [2]","Minimal Lethal Concentration, Acanthamoeba (Cyst) (Acanthamoeba (Cyst))"
[H]/N=C(\N/C(=N/[H])NCCCCCCNC(=N)NC(=N)Nc1ccc(Cl)cc1)Nc1ccc(Cl)cc1 [Chlorhexidine],10 µg/mL,15 µg/mL,50 µg/mL
CCCCCCCCCCCCNC(=N)N [Dodecylguanidine],25 µg/mL,10 µg/mL,40 µg/mL
N=C(N)N [Guanidine],500 µg/mL,400 µg/mL,500 µg/mL
